Assay results: patent publication US12459967B2, “Modulators of 5′-nucleotidase, ecto and the use thereof” (Arcus Biosciences, Inc., priority 2016, dated 2025)

Each molecule was assayed against T1, human CD73 (Homo sapiens, UniProt P21589) (assay: Inhibition of ecto-5′-nucleotidase (CD73) activity in CHO-CD73 cells, phosphate colorimetric readout). Details: CHO-K1 cells stably transfected with human CD73, 2500 cells per well, 25 μM AMP substrate, 50 minutes incubation at 37° C.; read-out: Potency: CD73 IC50.
T1 construct: host or cells: CHO-K1 (suspension pool CHO-CD73)
T1 sequence (P21589 27-549): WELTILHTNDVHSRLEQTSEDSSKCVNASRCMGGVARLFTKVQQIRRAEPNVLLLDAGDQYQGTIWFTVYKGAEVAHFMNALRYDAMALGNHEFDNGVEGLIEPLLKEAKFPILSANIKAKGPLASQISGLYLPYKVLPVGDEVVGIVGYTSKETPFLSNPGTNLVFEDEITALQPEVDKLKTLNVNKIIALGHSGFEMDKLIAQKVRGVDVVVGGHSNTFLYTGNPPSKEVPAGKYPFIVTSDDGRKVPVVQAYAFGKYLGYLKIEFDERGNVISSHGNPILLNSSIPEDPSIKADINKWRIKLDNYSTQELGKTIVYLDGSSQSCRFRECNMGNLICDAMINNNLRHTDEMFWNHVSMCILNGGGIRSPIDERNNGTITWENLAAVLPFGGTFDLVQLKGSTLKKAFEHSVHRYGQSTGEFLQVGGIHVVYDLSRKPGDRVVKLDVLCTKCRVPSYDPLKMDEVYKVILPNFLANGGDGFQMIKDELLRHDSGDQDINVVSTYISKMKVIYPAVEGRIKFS
Type: cell-based
Protocol: Inhibition of Ecto-5′-nucleotidase Activity. Compounds were evaluated to determine their ecto-5′-nucleotidase (CD73) inhibitory activity. Briefly, CHO-K1 cells stably transfected with human CD73 were generated by LakePharma (Belmont, CA) using molecular cloning of human CD73 (http://www.uniprot.org/uniprot/P21589) and mammalian transient expression vector (P21589.1). After antibiotic selection in CD OptiCHO cell media (Invitrogen, Catalog #12681-011) containing 5 μg/mL Puromycin and 200 μg/mL Hygromycin B, a suspension pool of CHO-CD73 cells was collected and frozen in 7.5% DMSO in cell media without antibiotics.
On the day of the experiment, one vial of CHO-CD73 cells was thawed and suspended in assay media which consisted of 20 mM HEPES, pH 7.4, 137 mM NaCl, 5.4 mM KCl, 1.3 mM CaCl2), 4.2 mM NaHCO3 and 0.1% glucose. To test the ability of compounds to inhibit CD73 enzymatic activity, 2 μL of 500 μM of compounds dissolved in DMSO (50×) were added to a 96-well polystyrene plate containing 58 μL of assay buffer. Next, 20 μL of CHO-CD73 cells in assay buffer were added to assay plate followed by 20 μL of 125 μM AMP (Adenosine 5′-monophosphate monohydrate) in assay buffer. Final assay conditions consisted of 2500 cells per well in 2% DMSO and 25 μM of AMP substrate. After 50 minutes of incubation (37° C. and 5% CO2) and centrifugation at 225×g for 5 mins, 80 μL of supernatant were transferred to a 96-well Spectra Plate (PerkinElmer, cat #6005640) which was pre-dispensed with 20 μL of PiColorLock Gold colorimetric assay reagents (Thermo, cat #30 300 30). The amount of inorganic phosphate was determined by reading the absorbance at 620 nm on an EnVision Multilabel Plate Reader (PerkinElmer). Enzymatic activity of CD73 was based on the amount of phosphate generated. Percentage of activity was calculated based on DMSO and no cells control wells. IC50 values of compounds were determined by four parameter non-linear regression fitting of percentage of activity in GraphPad Prism software.

Row | SMILES | IC50
1 | O=P(O)(O)CP(=O)(O)OC[C@H]1O[C@@H](n2cnc3c(NC4CCCC4)nc(Cl)nc32)[C@H](O)[C@@H]1O | < 100 nM
2 | CC(C)(C)c1ccc(CNc2nc(Cl)nc3c2ncn3[C@@H]2O[C@H](COP(=O)(O)CP(=O)(O)O)[C@@H](O)[C@H]2O)cc1 | < 100 nM
3 | Cc1ccc(CNc2ncnc3c2ncn3[C@@H]2O[C@H](COP(=O)(O)CP(=O)(O)O)[C@@H](O)[C@H]2O)cc1 | < 100 nM
4 | O=P(O)(O)CP(=O)(O)OC[C@H]1O[C@@H](n2cnc3c(NCc4cc(Cl)cc(Cl)c4)ncnc32)[C@H](O)[C@@H]1O | < 100 nM
5 | Cc1nc(NCc2ccccc2)c2ncn([C@@H]3O[C@H](COP(=O)(O)CP(=O)(O)O)[C@@H](O)[C@H]3O)c2n1 | < 100 nM
6 | C=Cc1nc(NCc2ccccc2)c2ncn([C@@H]3O[C@H](COP(=O)(O)CP(=O)(O)O)[C@@H](O)[C@H]3O)c2n1 | < 100 nM
7 | CCc1nc(NCc2ccccc2)c2ncn([C@@H]3O[C@H](COP(=O)(O)CP(=O)(O)O)[C@@H](O)[C@H]3O)c2n1 | < 100 nM
8 | C=CCc1nc(NCc2ccccc2)c2ncn([C@@H]3O[C@H](COP(=O)(O)CP(=O)(O)O)[C@@H](O)[C@H]3O)c2n1 | < 100 nM
9 | CCCc1nc(NCc2ccccc2)c2ncn([C@@H]3O[C@H](COP(=O)(O)CP(=O)(O)O)[C@@H](O)[C@H]3O)c2n1 | < 100 nM
10 | COc1nc(NCc2ccccc2)c2ncn([C@@H]3O[C@H](COP(=O)(O)CP(=O)(O)O)[C@@H](O)[C@H]3O)c2n1 | < 100 nM
11 | CNc1nc(NCc2ccccc2)c2ncn([C@@H]3O[C@H](COP(=O)(O)CP(=O)(O)O)[C@@H](O)[C@H]3O)c2n1 | < 100 nM
12 | CN(C)c1nc(NCc2ccccc2)c2ncn([C@@H]3O[C@H](COP(=O)(O)CP(=O)(O)O)[C@@H](O)[C@H]3O)c2n1 | < 100 nM
13 | O=P(O)(O)CP(=O)(O)OC[C@H]1O[C@@H](n2cnc3c(NCc4ccccc4)nc(N4CCCC4)nc32)[C@H](O)[C@@H]1O | < 100 nM
14 | O=P(O)(O)CP(=O)(O)OC[C@H]1O[C@@H](n2cnc3c(NCc4ccccc4)nc(N4CCCCC4)nc32)[C@H](O)[C@@H]1O | < 100 nM
15 | O=P(O)(O)CP(=O)(O)OC[C@H]1O[C@@H](n2cnc3c(NCc4ccccc4)nc(N4CCOCC4)nc32)[C@H](O)[C@@H]1O | < 100 nM
16 | CC(C)Sc1nc(NCc2ccccc2)c2ncn([C@@H]3O[C@H](COP(=O)(O)CP(=O)(O)O)[C@@H](O)[C@H]3O)c2n1 | < 100 nM
17 | CC(C)S(=O)(=O)c1nc(NCc2ccccc2)c2ncn([C@@H]3O[C@H](COP(=O)(O)CP(=O)(O)O)[C@@H](O)[C@H]3O)c2n1 | 100 to 1000 nM
18 | Nc1nc(F)nc2c1ncn2[C@@H]1O[C@H](COP(=O)(O)CP(=O)(O)O)[C@@H](O)[C@@H]1O | 100 to 1000 nM
19 | Nc1ncnc2c1ncn2[C@@H]1O[C@H](COP(=O)(O)CP(=O)(O)O)[C@@H](O)[C@H]1F | > 1000 nM
20 | Nc1nc(Cl)nc2c1ncn2[C@@H]1O[C@H](COP(=O)(O)CP(=O)(O)O)[C@@H](O)[C@@H]1F | < 100 nM
21 | O=P(O)(O)CP(=O)(O)OC[C@H]1O[C@@H](n2cnc3c(NCc4ccccc4)nc(Cl)nc32)[C@@H](F)[C@@H]1O | < 100 nM
22 | CN(Cc1ccccc1)c1nc(Cl)nc2c1ncn2[C@@H]1O[C@H](COP(=O)(O)CP(=O)(O)O)[C@@H](O)[C@@H]1F | < 100 nM

Row | SMILES | IC50
23 | CNc1nc(Cl)nc2c1ncn2[C@@H]1O[C@H](COP(=O)(O)CP(=O)(O)O)[C@@H](O)[C@@H]1F | < 100 nM
24 | CCNc1nc(Cl)nc2c1ncn2[C@@H]1O[C@H](COP(=O)(O)CP(=O)(O)O)[C@@H](O)[C@@H]1F | < 100 nM
25 | CC(C)Nc1nc(Cl)nc2c1ncn2[C@@H]1O[C@H](COP(=O)(O)CP(=O)(O)O)[C@@H](O)[C@@H]1F | < 100 nM
26 | O=P(O)(O)CP(=O)(O)OC[C@H]1O[C@@H](n2cnc3c(NCC4CC4)nc(Cl)nc32)[C@@H](F)[C@@H]1O | < 100 nM
27 | O=P(O)(O)CP(=O)(O)OC[C@H]1O[C@@H](n2cnc3c(NC4CCCC4)nc(Cl)nc32)[C@@H](F)[C@@H]1O | < 100 nM
28 | O=P(O)(O)CP(=O)(O)OC[C@H]1O[C@@H](n2cnc3c(N[C@H]4CCOC4)nc(Cl)nc32)[C@@H](F)[C@@H]1O | < 100 nM
29 | O=P(O)(O)CP(=O)(O)OC[C@H]1O[C@@H](n2cnc3c(N[C@@H]4CCOC4)nc(Cl)nc32)[C@@H](F)[C@@H]1O | < 100 nM
30 | O=P(O)(O)CP(=O)(O)OC[C@H]1O[C@@H](n2cnc3c(NC4CCOCC4)nc(Cl)nc32)[C@@H](F)[C@@H]1O | < 100 nM
31 | O=P(O)(O)CP(=O)(O)OC[C@H]1O[C@@H](n2cnc3c(N4CCCC4)nc(Cl)nc32)[C@@H](F)[C@@H]1O | < 100 nM
32 | O=P(O)(O)CP(=O)(O)OC[C@H]1O[C@@H](n2cnc3c(N4CCCCC4)nc(Cl)nc32)[C@@H](F)[C@@H]1O | < 100 nM
33 | O=P(O)(O)CP(=O)(O)OC[C@H]1O[C@@H](n2cnc3c(N4CCOCC4)nc(Cl)nc32)[C@@H](F)[C@@H]1O | < 100 nM
34 | O=P(O)(O)CP(=O)(O)OC[C@H]1O[C@@H](n2cnc3c(N4Cc5ccccc5C4)nc(Cl)nc32)[C@@H](F)[C@@H]1O | < 100 nM
35 | O=P(O)(O)CP(=O)(O)OC[C@H]1O[C@@H](n2cnc3c(NCc4ccc(Cl)cc4)nc(Cl)nc32)[C@@H](F)[C@@H]1O | < 100 nM
36 | O=P(O)(O)CP(=O)(O)OC[C@H]1O[C@@H](n2cnc3c(NCc4ccc(F)cc4)nc(Cl)nc32)[C@@H](F)[C@@H]1O | < 100 nM
37 | Cc1cccc(CNc2nc(Cl)nc3c2ncn3[C@@H]2O[C@H](COP(=O)(O)CP(=O)(O)O)[C@@H](O)[C@@H]2F)c1 | < 100 nM
38 | C[C@H](Nc1nc(Cl)nc2c1ccn2[C@@H]1O[C@H](COP(=O)(O)CP(=O)(O)O)[C@@H](O)[C@@H]1F)c1ccccc1F | < 100 nM
39 | C[C@@H](Nc1nc(Cl)nc2c1ccn2[C@@H]1O[C@H](COP(=O)(O)CP(=O)(O)O)[C@@H](O)[C@@H]1F)c1ccccc1F | < 100 nM
40 | C[C@@H](Nc1nc(Cl)nc2c1ccn2[C@@H]1O[C@H](COP(=O)(O)CP(=O)(O)O)[C@@H](O)[C@@H]1F)c1cccc(F)c1 | < 100 nM
41 | O=P(O)(O)CP(=O)(O)OC[C@H]1O[C@@H](n2cnc3c(NC4CCCC4)nc(Cl)cc32)[C@H](O)[C@@H]1O | < 100 nM
42 | O=P(O)(O)CP(=O)(O)OC[C@H]1O[C@@H](n2cnc3c(NC4CCCC4)nc(Cl)cc32)[C@@H](F)[C@@H]1O | < 100 nM
43 | CN(c1nc(Cl)cc2c1ncn2[C@@H]1O[C@H](COP(=O)(O)CP(=O)(O)O)[C@@H](O)[C@@H]1F)C1CCCC1 | < 100 nM
44 | O=P(O)(O)CP(=O)(O)OC[C@H]1O[C@@H](n2ncc3c(NC4CCCC4)ncnc32)[C@H](O)[C@@H]1O | < 100 nM
